Experimental data from patent US11746116B2, “Antibiotic resistance breakers” (KING'S COLLEGE LONDON, priority 2017, dated 2023).
≈ marks a conversion by molar mass, not a printed value.

What was measured:
12156 = assay: MIC, A. baumannii extended panel; format: cell-based; conditions: A. baumannii 12156
UKA10 = assay: MIC, A. baumannii extended panel; format: cell-based
SA2 = assay: MIC, extended Gram-positive panel; format: cell-based, S. aureus; conditions: S. aureus SA2
VRE12204 = assay: MIC, microdilution broth method; format: cell-based, Enterococcus faecium; conditions: VRE12204; in µg/mL
UKA13 = assay: MIC, A. baumannii extended panel; format: cell-based
PA01 = assay: MIC, microdilution broth method; format: cell-based, Pseudomonas aeruginosa; conditions: PA01; Normal (no PMBN); in µg/mL
Ab17978 = assay: MIC, microdilution broth method; format: cell-based; conditions: Ab17978; Normal (no PMBN); in µg/mL
UKA12 = assay: MIC, A. baumannii extended panel; format: cell-based
VSE775 = assay: MIC, microdilution broth method; format: cell-based, Enterococcus faecalis; conditions: VSE775; in µg/mL
13423 = assay: MIC, A. baumannii extended panel; format: cell-based; conditions: A. baumannii 13423
UKA7 = assay: MIC, A. baumannii extended panel; format: cell-based
MSSA9144 = assay: MIC, microdilution broth method; format: cell-based, Staphylococcus aureus; conditions: MSSA9144; in µg/mL
W1 = assay: MIC, A. baumannii extended panel; format: cell-based
UKA16 = assay: MIC, A. baumannii extended panel; format: cell-based
OXA23.1 = assay: MIC, A. baumannii extended panel; format: cell-based; conditions: A. baumannii OXA23.1
13302 = assay: MIC, A. baumannii extended panel; format: cell-based; conditions: A. baumannii 13302
A601 = assay: MIC, A. baumannii extended panel; format: cell-based
UKA1 = assay: MIC, A. baumannii extended panel; format: cell-based

| SMILES | MIC 12156 [µg/mL] | MIC (UKA10) [µg/mL] | MIC (SA2) [µg/mL] | MIC (VRE12204) | MIC (UKA13) [µg/mL] | MIC (PA01) | MIC (Ab17978) | MIC (UKA12) [µg/mL] | MIC (VSE775) | MIC 13423 [µg/mL] | MIC (UKA7) [µg/mL] | MIC (MSSA9144) | MIC (W1) [µg/mL] | MIC (UKA16) [µg/mL] | MIC (OXA23.1) [µg/mL] | MIC 13302 [µg/mL] | MIC (A601) [µg/mL] | MIC (UKA1) [µg/mL] |
| --- | --- | --- | --- | --- | --- | --- | --- | --- | --- | --- | --- | --- | --- | --- | --- | --- | --- | --- |
| O=C(O)c1cn(C2CC2)c2cc(N3CCNCC3)c(F)cc2c1=O [Ciprofloxacin, ciprofloxacin, reference compound] | 1 (≈ 3.02 µM) | 256 (≈ 773 µM) | 1 (≈ 3.02 µM) | 1 | 512 (≈ 1550 µM) | 0.25 | 0.25 | 512 (≈ 1550 µM) | 1 | 256 (≈ 773 µM) | > 512 | 0.25 |  |  |  |  |  |  |
| Cl.O=C(O)c1cn(C2CC2)c2cc(N3CCN(Cc4ccc(CO)cc4)CC3)c(F)cc2c1=O [ML-77-158] | 0.5 |  |  |  | 32 |  |  | 32 |  |  | 64 |  | 32 | 32 | 64 | 64 | 8 | 16 |
